Patent publication US20100203033A1, “Kits, formulations and solutions having enzymatically- permissive amounts of visualization agents and uses thereof” (priority 2007, published 2010)

Assays:
thrombin [1] = target: T1, thrombin (Homo sapiens, UniProt P00734); experiment: Drop test model: migration length of fibrin sealant on a slanted surface (clotting kinetics); format: biochemical; set-up: 5 ml of a thrombin solution 5 folds diluted (final: 200 IU/ml)
Method: (§1) Human thrombin was mixed with different dyes to final dye concentrations of 0.005-0.2%. The influence of dyes on clotting kinetics was tested using the drop test model. Briefly, measurements of fibrin clotting kinetics were performed on an inclined plane in a device powered by a Nitrogen pressure of 7×10^5 Pa. In each experiment 5 ml of Biological Active Component (BAC) and 5 ml of a thrombin solution 5 folds diluted (final: 200 IU/ml) (in 40 mM CaCl2) were pumped into a separate syringe. […] These two solutions were released (about ⅛ of each) simultaneously, and a mixed drop falls onto a slanted surface. The drop leaks down the slope until a clot is formed. The distance traveled by the drops was recorded on a millimetric paper sheet placed on the slanted surface. […] The migration lengths of the fibrin sealant with the different formulations are listed below in Table 2.

thrombin [2] = target: T1, thrombin; experiment: Drop test model after freeze and thaw (F&T) of dyed thrombin; format: biochemical; set-up: 5 ml of a thrombin solution 5 folds diluted (final: 200 IU/ml)
Method: as §1
Human thrombin was formulated with methylene blue, crystal violet, bromothymol blue or riboflavin at final concentrations of 0.005-0.1%. The different formulations were fast frozen to −35° C. and then thawed. The effect of the freeze and thaw procedure on thrombin clotting activity was evaluated using the drop test model (migration time assay as in Example 2).

thrombin [3] = target: T1, thrombin; experiment: Thrombin clotting activity of dyed thrombin formulations (modified European Pharmacopeia Assay 0903/1997); format: biochemical; set-up: measuring thrombin clotting activity in the different formulations
Method: The present study was aimed to determine the effect of dye addition to the fibrin glue formulation on thrombin activity. […] The compatibility of the dyes with thrombin was tested by measuring thrombin clotting activity in the different formulations according to the following modified, European Pharmacopeia Assay (0903/1997), procedure.
(§2) Briefly, standard solution of thrombin (4, 6, 8 and 10 IU/ml) or the test sample were incubated for 2 minutes at 30° C. Then 40 μl thrombin solution of each solution were mixed with 160 μl fibrinogen solution (0.1%; Enzyme research; cat No FIB1 2800L) and clotting time was measured. A calibration curve of log clotting times vs. log thrombin concentration was plotted using the standards. Thrombin activity in the different formulations was determined by the clotting time obtained (calculated automatically by a clotting machine, interpolated from the calibration curve and multiplied by the dilution factor).

thrombin [4] = target: T1, thrombin; experiment: Thrombin clotting activity of dyed thrombin with or without exposure to day light; format: biochemical; set-up: measuring thrombin clotting activity in the different formulations; details: 0.02% dye in thrombin solution, uncovered, 6 hours day light
Method: as §2
In the adhesion prevention indications the dye may be added to the thrombin component prior to mixing it with BAC. The present experiment was carried out to assess the effect of visualization agent addition to thrombin solution on thrombin clotting activity. Two dyes were evaluated: Indigo Carmine (IC) and Methylene Blue (MB). […] The effect of the dyes on thrombin activity with or without exposure to day light was assessed. The thrombin clotting activity was measured as indicated above in Example 1. […] The samples were mixed with the same fibrinogen solution and the thrombin activity was calculated from the calibration curve. […]
Thrombin activity and the color intensity (OD of IC at 610 nm and of MB at 663 nm) were measured at TO and after exposure to day light for 6 hours. […]

[5] = Solubility of indigo carmine in thrombin solution by visual inspection; format: physicochemical
Method: The present example was aimed to determine the maximal solubility of indigo carmine in the thrombin component of the fibrin sealant. Thrombin final container (Omrix, 1,000 IU/ml, 5 ml) was mixed with 1% indigo carmine (dissolved in purified water) to a final concentration of 0.2, 0.21, 0.22, 0.25 or 0.3 mg/ml. The prepared solutions were mixed on a roller for 30 min at room temperature and the solubility limit of the dye was determined by visual inspection.

[6] = dye concentration within the thrombin component 0.01%
[7] = dye concentration within the thrombin component 0.02%
[8] = dye concentration within the thrombin component 0.005%
[9] = dye concentration within the thrombin component 0.05%
[10] = dye 0.005% in thrombin component
[11] = dye concentration within the thrombin component 0.1%
[12] = dye concentration within the thrombin component 0.2%

For `Cc1c(C2(c3cc(C(C)C)c(O)c(Br)c3C)OS(=O)(=O)c3ccccc32)cc(C(C)C)c(O)c1Br` [Bromothymol Blue], the Migration length (thrombin [1]; [6]) was 9.7 cm, the Migration length (thrombin [1]; [7]) was 11.9 cm and the Migration length (thrombin [2]; dye 0.02% in thrombin component) was >25 cm.
For `CN(C)c1ccc(C(=C2C=CC(=[N+](C)C)C=C2)c2ccc(N(C)C)cc2)cc1` [Crystal Violet], the Migration length (thrombin [1]; [8]) was 12.1 cm, the Migration length (thrombin [1]; [6]) was 23.9 cm and the Migration length (thrombin [1]; [9]) was >25 cm. For the same molecule, the Migration length (thrombin [2]; [10]) was 16.3 cm, the Recovered activity (thrombin [3]; [6]) was 106% and the “Thrombin Activity” value (thrombin [3]; [6]) was 1125 IU/ml. The Recovered activity (thrombin [3]; [9]) was 94%, the “Thrombin Activity” value (thrombin [3]; [9]) was 995 IU/ml and the Recovered activity (thrombin [3]; [11]) was 49%. The “Thrombin Activity” value (thrombin [3]; [11]) was 516 IU/ml, the Recovered activity (thrombin [3]; [12]) was 22% and the “Thrombin Activity” value (thrombin [3]; [12]) was 234 IU/ml.
`CN(C)c1ccc(N=Nc2ccc(S(=O)(=O)[O-])cc2)cc1.[Na+]` [Methyl Orange, Methyl Orange Sodium Salt] gave a Migration length (thrombin [1]; [8]) of 8.26 cm and a Migration length (thrombin [1]; [6]) of 7.6 cm.
With `CN(C)c1ccc(/N=N/c2ccccc2C(=O)O)cc1` [Methyl Red, Methyl red] the Migration length (thrombin [1]; dye dilution 01:26) was 12.4 cm and the Migration length (thrombin [1]; dye dilution 01:51) was 10.2 cm.
In the case of `CN(C)c1ccc2nc3ccc(=[N+](C)C)cc-3sc2c1` [Methylene Blue], the Migration length (thrombin [1]; [11]) is reported as 10.7 cm, the Migration length (thrombin [1]; [12]) is reported as 14.3 cm and the “reduction in thrombin activity” value (thrombin [4]) is reported as “about 50%”. The Migration length (thrombin [2]; dye 0.1% in thrombin component) was 8.4 cm, the Recovered activity (thrombin [3]; [6]) was 92% and the “Thrombin Activity” value (thrombin [3]; [6]) was 1018 IU/ml. The Recovered activity (thrombin [3]; [9]) was 97%, the “Thrombin Activity” value (thrombin [3]; [9]) was 1070 IU/ml and the Recovered activity (thrombin [3]; [11]) was 90%. The “Thrombin Activity” value (thrombin [3]; [11]) was 991 IU/ml, the Recovered activity (thrombin [3]; [12]) was 89% and the “Thrombin Activity” value (thrombin [3]; [12]) was 978 IU/ml.
For `Cc1cc2nc3c(=O)[nH]c(=O)nc-3n(C[C@H](O)[C@H](O)[C@H](O)CO)c2cc1C` [Riboflavin], the Migration length (thrombin [1]; [8]) was 11.5 cm, the Migration length (thrombin [1]; [6]) was 13.3 cm and the Migration length (thrombin [1]; [7]) was 22.9 cm. It also gave a Migration length (thrombin [2]; [10]) of 19.8 cm.
For `O=C1/C(=C2\Nc3ccc(S(=O)(=O)O)cc3C2=O)Nc2ccc(S(=O)(=O)O)cc21` [indigo carmine, Indigotindisulfonate sodium], the “effect of storage at 2-8 °C” value ([5]; 0.02% indigo carmine dyed thrombin solution, about 30 min at 2-8 °C) was “sedimentation”, the “effect of incubation at room temperature after refrigeration” value ([5]; 0.02% indigo carmine dyed thrombin solution, after over night incubation at 2-8 °C) was “re-dissolution of the particulate sample” and the “result of visual inspection above the solubility limit” value ([5]; 0.21, 0.22, 0.25 and 0.3 mg/ml in thrombin solution) was “aggregate formation”. The “concentration at which complete dissolution of the sample was obtained” value ([5]; thrombin final container 1,000 IU/ml, 30 min on roller at room temperature) was 0.2 mg/mL.
